Target: mGluR5 (Homo sapiens, UniProt P41594)
Assay: mGluR5 positive allosteric modulator (PAM) functional assay
Assay type: cell-based

mGluR5, sequence (P41594 21-1212): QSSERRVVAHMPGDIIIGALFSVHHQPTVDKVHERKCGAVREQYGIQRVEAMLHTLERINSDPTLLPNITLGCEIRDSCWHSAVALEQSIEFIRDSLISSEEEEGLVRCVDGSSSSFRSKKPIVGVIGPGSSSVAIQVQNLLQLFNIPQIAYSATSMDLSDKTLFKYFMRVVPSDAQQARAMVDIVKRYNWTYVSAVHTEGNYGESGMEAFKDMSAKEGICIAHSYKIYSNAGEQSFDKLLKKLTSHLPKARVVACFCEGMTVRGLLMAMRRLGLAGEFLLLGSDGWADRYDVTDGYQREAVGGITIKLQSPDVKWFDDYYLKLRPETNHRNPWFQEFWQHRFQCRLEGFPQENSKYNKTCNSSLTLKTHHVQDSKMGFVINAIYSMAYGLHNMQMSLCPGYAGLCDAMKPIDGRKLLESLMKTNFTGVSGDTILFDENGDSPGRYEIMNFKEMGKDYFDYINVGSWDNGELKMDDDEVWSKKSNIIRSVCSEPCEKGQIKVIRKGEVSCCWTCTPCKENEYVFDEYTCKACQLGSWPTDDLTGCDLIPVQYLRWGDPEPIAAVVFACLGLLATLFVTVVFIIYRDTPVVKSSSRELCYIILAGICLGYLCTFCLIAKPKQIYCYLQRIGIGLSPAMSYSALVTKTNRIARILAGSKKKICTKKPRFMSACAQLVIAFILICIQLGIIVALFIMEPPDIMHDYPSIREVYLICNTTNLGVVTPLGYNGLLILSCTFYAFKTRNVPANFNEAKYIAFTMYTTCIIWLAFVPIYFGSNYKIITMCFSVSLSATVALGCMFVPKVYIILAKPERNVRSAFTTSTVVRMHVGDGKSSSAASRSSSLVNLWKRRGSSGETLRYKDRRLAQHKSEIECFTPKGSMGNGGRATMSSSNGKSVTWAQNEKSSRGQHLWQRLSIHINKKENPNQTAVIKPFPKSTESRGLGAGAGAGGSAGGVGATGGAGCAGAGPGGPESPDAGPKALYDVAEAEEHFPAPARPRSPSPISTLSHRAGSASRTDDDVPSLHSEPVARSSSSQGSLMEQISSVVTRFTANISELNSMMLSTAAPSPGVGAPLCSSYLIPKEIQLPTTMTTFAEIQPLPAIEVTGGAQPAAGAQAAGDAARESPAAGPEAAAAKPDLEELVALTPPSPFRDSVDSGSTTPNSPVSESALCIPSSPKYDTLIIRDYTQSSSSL

SMILES	EC50
CN1C[C@H](F)C[C@@H]1c1nc(-c2ccc(C#Cc3ccccn3)cn2)no1 [Compound 169, 5-((2R,4R)-4-fluoro-1-methylpyrrolidin-2-yl)-3-(5-(pyridin-2-ylethynyl)pyridin-2-yl)-1,2,4-oxadiazole]	300 to 1000 nM
CCC(CC)c1nc(-c2ccc(C#Cc3ccncc3)cc2)no1 [Compound 75, 5-(pentan-3-yl)-3-(4-(pyridin-4-ylethynyl)phenyl)-1,2,4-oxadiazole]	30 to 100 nM
CCC(CC)c1nc(-c2ccc(C#Cc3ccncc3)cn2)no1 [Compound 160, 5-(pentan-3-yl)-3-(5-(pyridin-4-ylethynyl)pyridin-2-yl)-1,2,4-oxadiazole]	30 to 100 nM
CC[C@@H](C)c1nc(-c2ccc(C#Cc3ccncc3)cc2)no1 (single isomer, unassigned) [Compound 73]	30 to 100 nM
CCC(OC)c1nc(-c2ccc(C#Cc3ccncc3)cc2)no1 (stereo not shown) [Compound 76, 5-(1-methoxypropyl)-3-(4-(pyridin-4-ylethynyl)phenyl)-1,2,4-oxadiazole]	30 to 100 nM
CCN(C)c1nc(-c2ccc(C#Cc3cccc(F)c3)cc2)no1 [Compound 61, N-ethyl-3-(4-((3-fluorophenyl)ethynyl)phenyl)-N-methyl-1,2,4-oxadiazol-5-amine]	300 to 1000 nM
CCC(OC)c1nc(-c2ccc(C#Cc3ccccn3)cn2)no1 (stereo not shown) [Compound 138, 5-(1-methoxypropyl)-3-(5-(pyridin-2-ylethynyl)pyridin-2-yl)-1,2,4-oxadiazole]	100 to 300 nM
CN1CC(F)(F)C[C@H]1c1nc(-c2ccc(C#Cc3ccccn3)cn2)no1 [Compound 155, (S)-5-(4,4-difluoro-1-methylpyrrolidin-2-yl)-3-(5-(pyridin-2-ylethynyl)pyridin-2-yl)-1,2,4-oxadiazole]	100 to 300 nM
C(#Cc1ccccn1)c1ccc(-c2noc(C3CC4CCN3C4)n2)nc1 (stereo not shown) [Compound 174, 5-(1-azabicyclo[2.2.1]heptan-2-yl)-3-(5-(pyridin-2-ylethynyl)pyridin-2-yl)-1,2,4-oxadiazole]	100 to 300 nM
CC(c1nc(-c2ccc(C#Cc3ccncc3)cc2)no1)N(C)C (stereo not shown) [Compound 80, N,N-dimethyl-1-(3-(4-(pyridin-4-ylethynyl)phenyl)-1,2,4-oxadiazol-5-yl)ethanamine]	≤ 30 nM
CCN1CCCC1c1nc(-c2ccc(C#Cc3cccc(F)c3)cc2)no1 (stereo not shown) [Compound 48, 5-(1-ethylpyrrolidin-2-yl)-3-(4-((3-fluorophenyl)ethynyl)phenyl)-1,2,4-oxadiazole]	100 to 300 nM
CCC(CC)c1nnc(-c2ccc(C#Cc3ccncc3)cc2)o1 [Compound 3, 2-(pentan-3-yl)-5-(4-(pyridin-4-ylethynyl)phenyl)-1,3,4-oxadiazole]	30 to 100 nM
CC(C)(C)c1nc(-c2ccc(C#Cc3ccc(F)cc3)cc2)no1 [Compound 66, 5-(tert-butyl)-3-(4-((4-fluorophenyl)ethynyl)phenyl)-1,2,4-oxadiazole]	100 to 300 nM
CN1CC[C@@H]2C[C@@]21c1nc(-c2ccc(C#Cc3ccccn3)cn2)no1 [Compound 172, 5-((1S,5R)-2-methyl-2-azabicyclo[3.1.0]hexan-1-yl)-3-(5-(pyridin-2-ylethynyl)pyridin-2-yl)-1,2,4-oxadiazole]	300 to 1000 nM
CCC(NC1CC1)c1nc(-c2ccc(C#Cc3ccccn3)cn2)no1 (stereo not shown) [Compound 149, N-(1-(3-(5-(pyridin-2-ylethynyl)pyridin-2-yl)-1,2,4-oxadiazol-5-yl)propyl)cyclopropanamine]	300 to 1000 nM
C(#Cc1ccccn1)c1ccc(-c2noc(C3CCCN3)n2)nc1 (stereo not shown) [Compound 151, 3-(5-(pyridin-2-ylethynyl)pyridin-2-yl)-5-(pyrrolidin-2-yl)-1,2,4-oxadiazole]	300 to 1000 nM
COC(C)c1nc(-c2ccc(C#Cc3ccncc3)cc2)no1 (stereo not shown) [Compound 74, 5-(1-methoxyethyl)-3-(4-(pyridin-4-ylethynyl)phenyl)-1,2,4-oxadiazole]	≤ 30 nM
CC(C)N1CCCC1c1nc(-c2ccc(C#Cc3cccc(F)c3)cc2)no1 (stereo not shown) [Compound 49, 3-(4-((3-fluorophenyl)ethynyl)phenyl)-5-(1-isopropylpyrrolidin-2-yl)-1,2,4-oxadiazole]	300 to 1000 nM
CC(c1nnc(-c2ccc(C#Cc3ccccn3)cn2)n1C)N1CCCC1 (stereo not shown) [Compound 10, 2-(4-methyl-5-(1-(pyrrolidin-1-yl)ethyl)-4H-1,2,4-triazol-3-yl)-5-(pyridin-2-ylethynyl)pyridine]	100 to 300 nM
Fc1cccc(C#Cc2ccc(-c3noc(C4CCCO4)n3)cc2)c1 (stereo not shown) [Compound 39, 3-(4-((3-fluorophenyl)ethynyl)phenyl)-5-(tetrahydrofuran-2-yl)-1,2,4-oxadiazole]	300 to 1000 nM
CCC(C)c1nc(-c2ccc(C#Cc3ccncc3)nc2)no1 (stereo not shown) [Compound 90, 5-(sec-butyl)-3-(6-(pyridin-4-ylethynyl)pyridin-3-yl)-1,2,4-oxadiazole]	≤ 30 nM
CCC(C)c1nc(-c2ccc(C#Cc3ccncc3)cc2)no1 (stereo not shown) [Compound 71, 5-(sec-butyl)-3-(4-(pyridin-4-ylethynyl)phenyl)-1,2,4-oxadiazole]	100 to 300 nM

Other lines, results leading:

EC50	SMILES
300 to 1000 nM	CC(C)(C)OC(=O)N1CCC1c1nc(-c2ccc(C#Cc3cccc(F)c3)cn2)no1 (stereo not shown) [Compound 99, tert-butyl 2-(3-(5-((3-fluorophenyl)ethynyl)pyridin-2-yl)-1,2,4-oxadiazol-5-yl)azetidine-1-carboxylate]
≤ 30 nM	CCC(NC1CC1)c1nc(-c2ccc(C#Cc3cccc(F)c3)cn2)no1 (stereo not shown) [Compound 117, N-(1-(3-(5-((3-fluorophenyl)ethynyl)pyridin-2-yl)-1,2,4-oxadiazol-5-yl)propyl)cyclopropanamine]
300 to 1000 nM	CNCc1nc(-c2ccc(C#Cc3cccc(F)c3)cn2)no1 [Compound 102, 1-(3-(5-((3-fluorophenyl)ethynyl)pyridin-2-yl)-1,2,4-oxadiazol-5-yl)-N-methylmethanamine]
≤ 30 nM	CN(C)C(C)(C)c1nc(-c2ccc(C#Cc3cccc(F)c3)cn2)no1 [Compound 113, 2-(3-(5-((3-fluorophenyl)ethynyl)pyridin-2-yl)-1,2,4-oxadiazol-5-yl)-N,N-dimethylpropan-2-amine]
≤ 30 nM	CCC(c1nc(-c2ccc(C#Cc3cccc(F)c3)cn2)no1)N(C)C (stereo not shown) [Compound 116, 1-(3-(5-((3-fluorophenyl)ethynyl)pyridin-2-yl)-1,2,4-oxadiazol-5-yl)-N,N-dimethylpropan-1-amine]
100 to 300 nM	CN1C[C@H](O)C[C@@H]1c1nc(-c2ccc(C#Cc3cccc(F)c3)cn2)no1 [Compound 132, (3R,5R)-5-(3-(5-((3-fluorophenyl)ethynyl)pyridin-2-yl)-1,2,4-oxadiazol-5-yl)-1-methylpyrrolidin-3-ol]
30 to 100 nM	COC(C)c1nc(-c2ccc(C#Cc3cccc(F)c3)nc2)no1 (stereo not shown) [Compound 84, 3-(6-((3-fluorophenyl)ethynyl)pyridin-3-yl)-5-(1-methoxyethyl)-1,2,4-oxadiazole]
300 to 1000 nM	CC(c1nc(-c2ccc(C#Cc3cccc(F)c3)cc2)no1)N(C)C1CC1 (stereo not shown) [Compound 54, N-(1-(3-(4-((3-fluorophenyl)ethynyl)phenyl)-1,2,4-oxadiazol-5-yl)ethyl)-N-methylcyclopropanamine]
100 to 300 nM	CC(C)NC(C)c1nc(-c2ccc(C#Cc3ccccn3)cn2)no1 (stereo not shown) [Compound 140, N-(1-(3-(5-(pyridin-2-ylethynyl)pyridin-2-yl)-1,2,4-oxadiazol-5-yl)ethyl)propan-2-amine]
100 to 300 nM	CCC(OC)c1nc(-c2ccc(C#Cc3cccc(F)c3)cc2)no1 (stereo not shown) [Compound 44, 3-(4-((3-fluorophenyl)ethynyl)phenyl)-5-(1-methoxypropyl)-1,2,4-oxadiazole]
≤ 30 nM	Fc1cccc(C#Cc2ccc(-c3noc(C4CCCN4CCC(F)(F)F)n3)nc2)c1 (stereo not shown) [Compound 123, 3-(5-((3-fluorophenyl)ethynyl)pyridin-2-yl)-5-(1-(3,3,3-trifluoropropyl)pyrrolidin-2-yl)-1,2,4-oxadiazole]
≤ 30 nM	CCC(OC)c1nc(-c2ccc(C#Cc3cccc(F)c3)nc2)no1 (stereo not shown) [Compound 85, 3-(6-((3-fluorophenyl)ethynyl)pyridin-3-yl)-5-(1-methoxypropyl)-1,2,4-oxadiazole]
30 to 100 nM	CC(C)NC(C)c1nc(-c2ccc(C#Cc3cccc(F)c3)cn2)no1 (stereo not shown) [Compound 110, N-(1-(3-(5-((3-fluorophenyl)ethynyl)pyridin-2-yl)-1,2,4-oxadiazol-5-yl)ethyl)propan-2-amine]
30 to 100 nM	CCC(OC)c1nc(-c2ccc(C#Cc3ccncc3)cn2)no1 (stereo not shown) [Compound 161, 5-(1-methoxypropyl)-3-(5-(pyridin-4-ylethynyl)pyridin-2-yl)-1,2,4-oxadiazole]
30 to 100 nM	N#CCN1CCCC1c1nc(-c2ccc(C#Cc3cccc(F)c3)cn2)no1 (stereo not shown) [Compound 125, 2-(2-(3-(5-((3-fluorophenyl)ethynyl)pyridin-2-yl)-1,2,4-oxadiazol-5-yl)pyrrolidin-1-yl)acetonitrile]
30 to 100 nM	CN1CCC1c1nc(-c2ccc(C#Cc3cccc(F)c3)cn2)no1 (stereo not shown) [Compound 101, 3-(5-((3-fluorophenyl)ethynyl)pyridin-2-yl)-5-(1-methylazetidin-2-yl)-1,2,4-oxadiazole]
300 to 1000 nM	CC(C)c1nc(-c2ccc(C#Cc3cccc(F)c3)cc2)no1 [Compound 24, 3-(4-((3-fluorophenyl)ethynyl)phenyl)-5-isopropyl-1,2,4-oxadiazole]
30 to 100 nM	CCC(C)c1nc(-c2ccc(C#Cc3ccccn3)cn2)no1 (stereo not shown) [Compound 134, 5-(sec-butyl)-3-(5-(pyridin-2-ylethynyl)pyridin-2-yl)-1,2,4-oxadiazole]
≤ 30 nM	CCC(C)c1nc(-c2ccc(C#Cc3ccncc3)cn2)no1 (stereo not shown) [Compound 158, 5-(sec-butyl)-3-(5-(pyridin-4-ylethynyl)pyridin-2-yl)-1,2,4-oxadiazole]
100 to 300 nM	C=C1CN[C@H](c2nc(-c3ccc(C#Cc4cccc(F)c4)cn3)no2)C1 [Compound 127, (S)-3-(5-((3-fluorophenyl)ethynyl)pyridin-2-yl)-5-(4-methylenepyrrolidin-2-yl)-1,2,4-oxadiazole]
300 to 1000 nM	CC(c1nc(-c2ccc(C#Cc3cccc(F)c3)cc2)no1)N1CCC1 (stereo not shown) [Compound 52, 5-(1-(azetidin-1-yl)ethyl)-3-(4-((3-fluorophenyl)ethynyl)phenyl)-1,2,4-oxadiazole]

Source: patent US10533000B2, “Metabotrophic glutamate receptor 5 modulators and methods of use thereof” (Sunovion Pharmaceuticals, Inc., priority 2011, dated 2020)
